The values below come from patent US10111853B2, “Compounds, compositions, and methods for the treatment of cancers” (PLACON THERAPEUTICS, INC., priority 2012, dated 2018).

A short description of series [1]: Drug load (gravimetric, GF-AAS) and encapsulation efficiency of nanoparticles. Format: physicochemical. The conditions noted are these: for Max DL, %: maximum drug load; for Max DL, % / Max EE, %: according to Example 11; for Max EE, %: maximum encapsulation. As for the experimental part: The polymer composition was varied by the ratio of the PLA or PLGA polymer to PLA-PEG or PLGA-PEG copolymer, as well as the PLA molecular weight (25-109 kDa). […] The oil phase was then slowly added to the continuously stirred aqueous phase containing an emulsifier (such as polysorbate 80 a.k.a. Tween® 80) at 10/90% or 20/80% v/v oil/water ratio and a coarse emulsion was prepared using a rotor-stator homogenizer or an ultrasound bath. The course emulsion was then processed through a high-pressure homogenizer (operated at 5,000 or 10,000 psi) for N=2 or 4 passes to form a nanoemulsion. In process (2) the polymers and the drug were dissolved in an organic solvent miscible with water (such as acetone) and added slowly to a continuously stirred aqueous phase with or without a stabilizer (such as polysorbate 80). In both processes (1) and (2) the nanoemulsion formed was quenched (by 5- or 10-fold dilution with cold (0-5° C.) or room temperature deionized water) to remove the major portion of the organic solvent resulting in hardening of the emulsion droplets and formation of a nanoparticle suspension, which was then concentrated and purified with deionized water containing or not surfactants using tangential flow filtration (500 kDa MWCO, mPES membranes).
The actual drug load was determined gravimetrically by transferring 1 mL of the nanoparticle suspension to a 4 mL glass vial and drying under vacuum on a Rotavapor® to determine the amount of total remaining solids. The drug content was then determined by reconstituting the dried sample in an organic solvent (such as N′N′-dimethylformamide) and measuring the total amount of platinum using graphite furnace atomic adsorption spectroscopy (GF-AAS). Encapsulation efficiency was calculated as the ratio between the actual and the theoretical drug load. The yield was determined based on the ratio between the encapsulated and used compound amounts. In-vitro release was studied by incubating the nanoparticle suspension in phosphate buffered saline (PBS) containing a solubilizer such as 1% hydroxypropyl beta cyclodextrin for 24 h at 37° C. mixed continuously in a water shaking bath. Samples were taken at different time points and spun with an ultracentrifuge at 1,000,000×g to separate the nanoparticles from the dissolution medium. The supernatant was then analyzed using GF-AAS or HPLC to determine the active content as a function of time.

Series [2] is described as follows: Mouse PK/PD study, tumor platinum levels by ICP-MS. On the set-up: species or system nude mice. The conditions noted are these: in vivo, iv, 4 mg/kg. How it is done: To examine the ability of compounds to accumulate in tumors, a murine cancer model was used. Animals were inoculated with 5×10^5 H460 […] lung cancer cells via subcutaneous injection to the flank. Tumors were allowed to reach an approximate volume of ˜500 mm^3. Animals were then randomized into treatment groups of 3 animals per time point and were dosed at 4 mg/kg. The 24 hour time point was used as a benchmark across compounds.
Tumors were excised from animals and dissolved in fuming nitric acid (60% w/w) by adding four parts nitric acid to 1 part tumor w/w and heating overnight at 60 degrees Centigrade. The resulting digest was diluted 1:10 in ICP-MS analysis buffer (1% nitric acid, 2% Triton x-100), and directly introduced into the ICP-MS unit by peristaltic pump. The end dilution factor for the samples as introduced to the ICP-MS was 50×.

Regarding `CC(C)(C)CC(C)(C)NC(=O)[O][Pt]([NH2])([NH2])([Cl])([Cl])[O]C(=O)NC(C)(C)CC(C)(C)C` [Compound 29], in series [1], the “Max DL, %” value turned out to be 5.9% and the “Max EE, %” value is recorded as 59%. Moreover, in series [1] (statement on Table 4), the “encapsulation efficiency (in words)” value is listed as “increased encapsulation efficiency” and the “maximum drug loading (in words)” value was “increased maximum drug loading”. The “platinum levels in the tumor, nanoparticle suspension versus free compound” value in series [2] is “higher platinum levels in the tumors when the corresponding compound was dosed as a nanoparticle suspension than as a free compound”.
As to `CCCCCC(=O)[O][Pt]([NH2])([NH2])([Cl])([Cl])[O]C(=O)CCCCC` [reference compound], in series [1], the “Max DL, %” value stood at 0.55% and the “Max EE, %” value is on record as 2.8%.
